Source: patent EP2662361A1, “Pyrazol indanyl carboxamides” (Bayer CropScience AG, priority 2012, dated 2013)

Experiment: physchem
Format: physicochemical
Conditions: reversed-phase c18 hplc, pH 2.7
Experimental: The logP values were measured in accordance with EEC Directive 79/831 Annex V.A8 by HPLC (High Performance Liquid Chromatography) using reversed-phase columns (C 18) by the following methods: • [a] The LC-MS determination in the acidic range is effected at pH 2.7 with 0.1% aqueous formic acid and acetonitrile (contains 0.1 % formic acid) as eluents; linear gradient from 10 % acetonitrile to 95 % acetonitrile.

chromatographic logP	SMILES
3.53	CC1c2cccc(NC(=O)c3cn(C)nc3C(F)F)c2CC1(C)C (stereo not drawn) [compound 5]
1.42	Cn1cc(C(=O)Nc2cccc3c2CC(O)C3)c(C(F)F)n1 (stereo not drawn) [compound 1]
3.77	CC(C)C1Cc2cccc(NC(=O)c3cn(C)nc3C(F)F)c2C1 (stereo not drawn) [compound 3]
2.71	CC(C)OC1Cc2cccc(NC(=O)c3cn(C)nc3C(F)F)c2C1 (stereo not drawn) [compound 2]
3.55	CC1Cc2c(NC(=O)c3cn(C)nc3C(F)F)cccc2C1(C)C (stereo not drawn) [compound 6]
4.14	CC(C)CC1Cc2cccc(NC(=O)c3cn(C)nc3C(F)F)c2C1 (stereo not drawn) [compound 4]
